The source made the active and inactive calls. The rule behind the calls is not given here.
Experiments:
[1] = Aqueous solubility of the compound incubated for 12 hrs by UV-Vis spectrophotometry; type: physicochemical; settings: buffer
Acinetobacter baumannii = assay: Antibacterial activity against Acinetobacter baumannii ATCC 19606 assessed as inhibition of bacterial growth incubated for 24 hrs by broth microdilution method; type: functional
Salmonella enterica = assay: Antibacterial activity against Salmonella enterica ATCC 14028 assessed as inhibition of bacterial growth incubated for 24 hrs by broth microdilution method; type: functional
Staphylococcus aureus [2] = assay: Antibacterial activity against methicillin-resistant Staphylococcus aureus 171 assessed as inhibition of bacterial growth incubated for 24 hrs by broth microdilution method; type: functional
Staphylococcus aureus [3] = assay: Antibacterial activity against methicillin-resistant Staphylococcus aureus 575 assessed as inhibition of bacterial growth incubated for 24 hrs by broth microdilution method; type: functional
Staphylococcus aureus [4] = assay: Antibacterial activity against methicillin-resistant Staphylococcus aureus 206 assessed as inhibition of bacterial growth incubated for 24 hrs by broth microdilution method; type: functional
[5] = Cytotoxicity against human HepG2 cells assessed as reduction in cell viability incubated for 24 hrs by CCK8 assay; type: toxicity, cell-based
[6] = Cytotoxicity against human HEK293 cells assessed as reduction in cell viability incubated for 24 hrs by CCK8 assay; type: toxicity, cell-based
Chlamydia pneumoniae [7] = assay: Anti-mycoplasma activity against Chlamydophila pneumoniae AR39 ATCC53592 assessed as inhibition of bacterial growth incubated for 3 to 5 days by broth microdilution method; type: functional; settings: time 3-5 day
Chlamydia pneumoniae [8] = assay: Anti-mycoplasma activity against Chlamydophila pneumoniae CWL-029 VR1310 assessed as inhibition of bacterial growth incubated for 3 to 5 days by broth microdilution method; type: functional; settings: time 3-5 day
Chlamydia pneumoniae [9] = assay: Anti-mycoplasma activity against Chlamydophila pneumoniae TW183 VR-2282 assessed as inhibition of bacterial growth incubated for 3 to 5 days by broth microdilution method; type: functional; settings: time 3-5 day
Staphylococcus aureus [10] = assay: Antibacterial activity against methicillin-resistant Staphylococcus aureus ATCC33591 assessed as post-antibiotic effect at 0.25 ug/ml incubated for 1 hr followed by washing and incubation in MHB medium for 10 hrs and later cultured on agar plate for overnight; type: functional; settings: dose 0.25 µg/ml
Escherichia coli [11] = assay: Antibacterial activity against Escherichia coli ATCC25922 assessed as post-antibiotic effect at 0.25 ug/ml incubated for 1 hr followed by washing and incubation in MHB medium for 10 hrs and later cultured on agar plate for overnight; type: functional; settings: dose 0.25 µg/ml
Escherichia coli [12] = assay: Antibiofilm activity against Escherichia coli ATCC25922 assessed as disruption of preformed biofilms at 0.5 ug/ml incubated for 24 hrs with preformed biofilms by crystal violet staining based analysis; type: functional; settings: dose 0.5 µg/ml
Cell membrane [13] = assay: Disruption of cell membrane in Escherichia coli ATCC25922 assessed as disrupted, furrowed, crumpled cell envelope at 0.125 to 0.5 ug/ml incubated for 2 hrs by propidium iodide staining based confocal laser scanning microscopy; type: subcellular; settings: dose 0.125-0.5 µg/ml
Cell membrane [14] = assay: Disruption of cell membrane in methicillin-resistant Staphylococcus aureus ATCC33591 assessed as induction of cell death by measuring increase in propidium iodide fluorescence intensity at 0.5 ug/ml incubated for 2 hrs by fluorescence field microscopy; type: subcellular; settings: dose 0.5 µg/ml
Cell membrane [15] = assay: Disruption of cell membrane in Escherichia coli ATCC25922 assessed as decrease in intracellular ATP content at 0.125 to 0.25 ug/ml incubated for 30 mins by luminescence based analysis; settings: dose 0.125-0.25 µg/ml
Cell membrane [16] = assay: Disruption of cell membrane in Escherichia coli ATCC25922 assessed as increase in extracellular ATP content at 0.125 to 0.25 ug/ml incubated for 30 mins by luminescence based analysis; settings: dose 0.125-0.25 µg/ml
Staphylococcus aureus [17] = assay: Antibacterial activity against methicillin-resistant Staphylococcus aureus ATCC33591 infected in systemic intraperitoneal infection Kunming mouse model assessed as increase in animal's survival rate at 5 to 20 mg/kg, ip treated at 1 hr post-infection and measured for 7 days; type: functional, organism-based; settings: dose 5-20 mg/kg, time 7.0 day
Staphylococcus aureus [18] = assay: Antibacterial activity against methicillin-resistant Staphylococcus aureus ATCC33591 infected in systemic intraperitoneal infection Kunming mouse model assessed as decrease in inflammation, neutrophil infiltration, alveolar structure destruction, leukocyte infiltration, interstitial thickening in lungs at 5 mg/kg, ip treated at 1 hr post-infection and measured after 7 days by Hematoxylin-Eosin staining based analysis; type: functional, organism-based; settings: time 7.0 day
[19] = Toxicity against methicillin-resistant Staphylococcus aureus ATCC33591 infected in systemic intraperitoneal infection Kunming mouse model assessed as mild liver damage at 20 mg/kg, ip treated at 1 hr post-infection and measured after 7 days by Hematoxylin-Eosin staining based analysis; type: organism-based; settings: in vivo, 168 h, time 7 day
[20] = target: T1, Solute carrier family 22 member 2 (Homo sapiens, UniProt O15244); assay: Inhibition of human OCT2 transfected in HEK293 cells assessed as decrease in intracellular ASP accumulation […] incubated for 10 mins followed by incubation with ASP for 5 mins by fluorescence based analysis; type: cell-based; settings: hek293, 0.25 h, time 15 min
T1 sequence (O15244 whole entry): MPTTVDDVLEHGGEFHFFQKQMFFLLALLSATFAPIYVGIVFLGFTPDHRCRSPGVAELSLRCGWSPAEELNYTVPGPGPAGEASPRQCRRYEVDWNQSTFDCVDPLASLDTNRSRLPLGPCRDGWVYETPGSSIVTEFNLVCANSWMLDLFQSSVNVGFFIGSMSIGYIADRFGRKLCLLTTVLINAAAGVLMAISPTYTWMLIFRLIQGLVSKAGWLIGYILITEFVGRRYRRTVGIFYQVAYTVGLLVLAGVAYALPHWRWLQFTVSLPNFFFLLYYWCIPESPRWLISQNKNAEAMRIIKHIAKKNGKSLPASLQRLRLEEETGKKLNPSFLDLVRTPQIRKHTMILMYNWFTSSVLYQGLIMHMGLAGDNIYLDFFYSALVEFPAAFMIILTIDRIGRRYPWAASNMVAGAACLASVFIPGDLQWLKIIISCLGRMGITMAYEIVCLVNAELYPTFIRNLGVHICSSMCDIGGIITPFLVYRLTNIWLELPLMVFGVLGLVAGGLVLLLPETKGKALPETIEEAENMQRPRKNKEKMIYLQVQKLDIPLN

[21] = Half-life in Sprague-Dawley rat at 5 mg/kg, iv; type: ADME, organism-based; settings: in vivo
[22] = Tmax in Sprague-Dawley rat at 10 mg/kg, po; type: ADME, organism-based; settings: in vivo
[23] = Half-life in Sprague-Dawley rat at 10 mg/kg, po; type: ADME, organism-based; settings: in vivo
[24] = AUC (0 to 24 hrs) in Sprague-Dawley rat at 10 mg/kg, po; type: ADME, organism-based; settings: in vivo
[25] = Observed MRT (0 to infinity) in Sprague-Dawley rat at 10 mg/kg, po; type: ADME, organism-based; settings: in vivo
[26] = Drug uptake in Sprague-Dawley rat kidney at 5 mg/kg, iv measured for 6 hrs by LC-MS/MS analysis; type: ADME, organism-based; settings: in vivo
Escherichia coli [27] = assay: Antibacterial activity against Escherichia coli ATCC25922 infected in pyelonephritis C57BL/6 mouse model assessed as decrease in IL-6 level in kidney at 3 to 10 mg/kg, iv qd for 3 days administered at 2 days post-infection by ELISA; type: functional, organism-based; settings: dose 3-10 mg/kg, time 3.0 day
Escherichia coli [28] = assay: Antibacterial activity against Escherichia coli ATCC25922 infected in pyelonephritis C57BL/6 mouse model assessed as decrease in MPO activity in kidney at 3 to 10 mg/kg, iv qd for 3 days administered at 2 days post-infection; type: functional, organism-based; settings: dose 3-10 mg/kg, time 3.0 day

## C=C[C@]1(C)C[C@@H](OC(=O)CSc2nc3cc[n+](Cc4ccc(C)cc4)cc3[nH]2)[C@]2(C)[C@H](C)CC[C@]3(CCC(=O)[C@H]32)[C@@H](C)[C@@H]1O.[Br-]
[1]
  solubility at 12 h: 573 µg/mL
Acinetobacter baumannii
  MIC: < 1 µg/mL
Salmonella enterica
  MIC: < 1 µg/mL
Staphylococcus aureus [2]
  MIC: 4 µg/mL
Staphylococcus aureus [3]
  MIC: 1 µg/mL
Staphylococcus aureus [4]
  MIC: 1 µg/mL
[5]
  CC50 at 24 h: > 100 µM
[6]
  CC50 at 24 h: 96.4 µM
Chlamydia pneumoniae [7]
  MIC: < 0.04 µg/mL
Chlamydia pneumoniae [8]
  MIC: < 0.04 µg/mL
Chlamydia pneumoniae [9]
  MIC: < 0.04 µg/mL
Staphylococcus aureus [10]
  PAE: 1.53 h
Escherichia coli [11]
  PAE: 1.78 h
Escherichia coli [12]
  Activity: 88.55%
Cell membrane [13]
  Activity: Active
Cell membrane [14]
  Activity: Active
Cell membrane [15]
  Activity: Active
Cell membrane [16]
  Activity: Active
Staphylococcus aureus [17]
  Activity: Active; Superior Efficacy Over Valnemulin Observed
Staphylococcus aureus [18]
  Activity: Active; Nearly Restoration Of Normal Histology Observed
[19]
  Activity: Toxic
[20]
  inhibition (INH): Not_active
[21]
  half-life: 1.17 h
[22]
  Tmax: 0.5 h
[23]
  half-life: 1.57 h
[24]
  AUC(0-t): 14600 ng·h/mL
[25]
  MRT inf: 2.46 h
[26]
  Drug uptake: Active
Escherichia coli [27]
  Activity: Dose-dependent-effect
Escherichia coli [28]
  Activity: Active
